Experiment [1] has as its system hyperactivity induced by MK801. The experiment can be described thus: Model of locomotor hyperactivity induced by MK801. It is filed as in vivo. The settings on record: clozapine 1 mg/kg. On the procedure: Given the pharmacological profile of the molecules chosen toward the noradrenergic and serotoninergic receptors, an antipsychotic activity was sought. The substances were tested in the model of locomotor hyperactivity induced by MK801. […] In this model and under our experimental conditions, clozapine (1 mg/kg) reduces by 56% the hyperactivity induced by MK 801.
Effect of the combination 1 mg/kg ifenprodil+1 mg/kg cyproheptadine on the locomotor activity induced by MK801 (cm covered, mean +SEM).

For experiment [2] the following is noted: in vivo; cited from earlier work.
The subject of experiment [3] is stimulant effects of alcohol. To be noted: in vivo; cited from earlier work.
For experiment [4], the system named is C57/BL6J male mice. In words: Motor and exploratory activity test in open-field (effects of the products on the locomotor activity). It is filed as in vivo. The settings on record: ifenprodil alone, doses of less than 10 mg/kg.
Method: (§1) The principle of the behavioral sensitization test is based on the measurement of the locomotor activity. The latter is measured in the open-field test.
Motor and Exploratory Activity Test in Open-Field
(§2) The animals used are 9-week old C57/BL6J male mice at the beginning of the experiment.
(§3) The open-fields used to measure the activity are 4 square chambers made of transparent plexiglas. Each open-field is arranged in a setting equipped with photoelectric cells which make it possible to record the movements of the animal.
The products used have known psychotropic properties. […] Since the principle of the study is based on the measurement of the locomotor activity, it is preferable to have a preliminary evaluation of these effects under the experimental conditions used.
All the products are dissolved in physiological saline (0.9% NaCl) so that the volume for injection is 10 ml/kg of body weight.
IFENPRODIL was tested at the following doses: 1 mg/kg; 3 mg/kg and 10 mg/kg.
The experiments were also performed in order to evaluate the effect of the combination of the products:
The test system of experiment [5] is alcohol withdrawal. The settings on record: in vivo; cited from earlier work.
Experiment [6] deals with sensitization induced by amphetamine. In words: Behavioral sensitization protocol (amphetamine), locomotor activity in open-field. To be noted: repeated sessions, amphetamine 2 mg/kg. Format: in vivo, mice.
Method: as §1, §2, §3
Groups receive beforehand an administration of one of the products or the combination of both.
During the 1st session, the animals receive NaCl at the 1st and 2nd injection. The experiment is performed over several sessions, 2 to 10 days apart.
The experiments were performed on 5 groups of animals which received the following treatments at each session.

Turning to `CN1CCN(C2=Nc3cc(Cl)ccc3Nc3ccccc32)CC1` [clozapine], in experiment [1], the “reduction of the hyperactivity induced by MK 801” value amounted to 56%.

On to `CC(C(O)c1ccc(O)cc1)N1CCC(Cc2ccccc2)CC1` (stereo not shown) [Ifenprodil], for which the anxiolytic effects entry in experiment [2] is “anxiolytic effects”. Moreover, in experiment [3], the “effect on the expression of sensitization (alcohol)” value is listed as “does not block” and the “effect on the stimulant effects of alcohol” value is reported as “reduces”. Besides, the effect on locomotion entry in experiment [4] is listed as “does not have a significant effect”. Further, in experiment [5], the “effect on the physical signs induced by alcohol withdrawal” value is recorded as “reduces”. The “effect on the development (and expression) of behavioral sensitization to amphetamine” value in experiment [6] is “limited effects”.

The record behind these values is patent US20080194631A1, “Medicament For the Treatment of Central Nervous System Disorders” (priority 2004, published 2008).
